Test results published in PubChem BioAssay AID2060510 (Molecular Pharmacology Branch, DTP, NCI, 2025).
Values belong to the compound of their own block, whether it stands above or below them.

Tested on: 439559-082-T-J2-PDC spheroids viability
Experiment: Anticancer human tumor 439559-082-T-J2-PDC patient-derived colon adenocarcinoma cell line growth inhibition [GQUAD]
Settings: for IC50: curve of first compound; for viability, T/C: stronger effect = lower value
In short: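 Multi-cell-type spheroids of tumor cells with HUVEC and mesenchymal stem cells, treated with drug combinations. Concentrations descend in half-log steps from near clinical Cmax, or from 10 microM where Cmax is unknown; viability read-out.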

[1] = second compound 0.0316 µM, first compound 0.0316 µM
[2] = second compound 0.0316 µM, first compound 0.1 µM
[3] = second compound 0.0316 µM, first compound 0.316 µM
[4] = second compound 0.0316 µM, first compound 1 µM
[5] = second compound 0.0316 µM, first compound 3.16 µM
[6] = second compound 0.0316 µM, first compound 10 µM
[7] = second compound 0.1 µM, first compound 0.0316 µM
[8] = second compound 0.1 µM, first compound 0.1 µM
[9] = second compound 0.1 µM, first compound 0.316 µM
[10] = second compound 0.1 µM, first compound 1 µM
[11] = second compound 0.1 µM, first compound 3.16 µM
[12] = second compound 0.1 µM, first compound 10 µM
[13] = second compound 0.316 µM, first compound 0.0316 µM
[14] = second compound 0.316 µM, first compound 0.1 µM
[15] = second compound 0.316 µM, first compound 0.316 µM
[16] = second compound 0.316 µM, first compound 1 µM
[17] = second compound 0.316 µM, first compound 3.16 µM
[18] = second compound 0.316 µM, first compound 10 µM
[19] = second compound 1 µM, first compound 0.0316 µM
[20] = second compound 1 µM, first compound 0.1 µM
[21] = second compound 1 µM, first compound 0.316 µM
[22] = second compound 1 µM, first compound 1 µM
[23] = second compound 1 µM, first compound 3.16 µM
[24] = second compound 1 µM, first compound 10 µM
[25] = second compound 3.16 µM, first compound 0.0316 µM
[26] = second compound 3.16 µM, first compound 0.1 µM
[27] = second compound 3.16 µM, first compound 0.316 µM
[28] = second compound 3.16 µM, first compound 1 µM
[29] = second compound 3.16 µM, first compound 3.16 µM
[30] = second compound 3.16 µM, first compound 10 µM
[31] = second compound 10 µM, first compound 0.0316 µM
[32] = second compound 10 µM, first compound 0.1 µM
[33] = second compound 10 µM, first compound 0.316 µM
[34] = second compound 10 µM, first compound 1 µM
[35] = second compound 10 µM, first compound 3.16 µM
[36] = second compound 10 µM, first compound 10 µM
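Further: spheroids exposed to the agents for 7 days before readout.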
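Wherever viability, T/C is given: percent of luminescence signal in DMSO vehicle wells taken as 100% viability.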

IC50 (second compound 0.0316 µM): 2610 nM
IC50 (second compound 0.1 µM): 2530 nM
IC50 (second compound 0.316 µM): 1740 nM
IC50 (second compound 1 µM): 1400 nM
IC50 (second compound 3.16 µM): 1280 nM
IC50 (second compound 10 µM): 1080 nM
Compound: C=CCn1c(=O)c2cnc(Nc3ccc(N4CCN(C)CC4)cc3)nc2n1-c1cccc(C(C)(C)O)n1 + Cc1cnc(CNC(=O)c2c(=O)c3ccc(N4CCCN(C)CC4)nc3n3c2sc2ccccc23)cn1
viability, T/C [1]: 95.4%
viability, T/C [2]: 93.7%
viability, T/C [3]: 88.8%
viability, T/C [4]: 83.7%
viability, T/C [5]: 43.2%
viability, T/C [6]: 25.4%
viability, T/C [7]: 104%
viability, T/C [8]: 83.6%
viability, T/C [9]: 91.4%
viability, T/C [10]: 76%
viability, T/C [11]: 43.1%
viability, T/C [12]: 22.2%
viability, T/C [13]: 84.6%
viability, T/C [14]: 87.5%
viability, T/C [15]: 73.5%
viability, T/C [16]: 66.3%
viability, T/C [17]: 33.8%
viability, T/C [18]: 24%
viability, T/C [19]: 83.2%
viability, T/C [20]: 87.9%
viability, T/C [21]: 72.1%
viability, T/C [22]: 61.8%
viability, T/C [23]: 27.3%
viability, T/C [24]: 20.2%
viability, T/C [25]: 73.3%
viability, T/C [26]: 63.6%
viability, T/C [27]: 68.3%
viability, T/C [28]: 56.8%
viability, T/C [29]: 25.1%
viability, T/C [30]: 18.5%
viability, T/C [31]: 66.2%
viability, T/C [32]: 53.9%
viability, T/C [33]: 61.2%
viability, T/C [34]: 51.1%
viability, T/C [35]: 31.2%
viability, T/C [36]: 13.8%

Compound: C=CCn1c(=O)c2cnc(Nc3ccc(N4CCN(C)CC4)cc3)nc2n1-c1cccc(C(C)(C)O)n1 + Cc1[nH]c2ccc(F)cc2c1-c1nc2c3cccnc3c3ncccc3c2[nH]1
IC50 (second compound 0.0316 µM): 7900 nM
IC50 (second compound 0.1 µM): > 10000 nM
IC50 (second compound 0.316 µM): 8080 nM
IC50 (second compound 1 µM): 8330 nM
IC50 (second compound 3.16 µM): 5740 nM
IC50 (second compound 10 µM): 5560 nM
viability, T/C [1]: 94.2%
viability, T/C [2]: 92.7%
viability, T/C [3]: 97.6%
viability, T/C [4]: 101%
viability, T/C [5]: 115%
viability, T/C [6]: 37%
viability, T/C [7]: 96.6%
viability, T/C [8]: 88.4%
viability, T/C [9]: 103%
viability, T/C [10]: 92.9%
viability, T/C [11]: 98.5%
viability, T/C [12]: 57.4%
viability, T/C [13]: 97.7%
viability, T/C [14]: 102%
viability, T/C [15]: 89%
viability, T/C [16]: 104%
viability, T/C [17]: 106%
viability, T/C [18]: 38.6%
viability, T/C [19]: 107%
viability, T/C [20]: 99%
viability, T/C [21]: 100%
viability, T/C [22]: 95.7%
viability, T/C [23]: 96.9%
viability, T/C [24]: 41.2%
viability, T/C [25]: 80.5%
viability, T/C [26]: 80.2%
viability, T/C [27]: 78.7%
viability, T/C [28]: 75.5%
viability, T/C [29]: 76.1%
viability, T/C [30]: 25.9%
viability, T/C [31]: 97.4%
viability, T/C [32]: 71.8%
viability, T/C [33]: 72.6%
viability, T/C [34]: 71.3%
viability, T/C [35]: 80.4%
viability, T/C [36]: 20.3%

IC50 (second compound 0.0316 µM): 176 nM
IC50 (second compound 0.1 µM): 123 nM
IC50 (second compound 0.316 µM): 80.9 nM
IC50 (second compound 1 µM): 71.5 nM
IC50 (second compound 3.16 µM): 46.8 nM
IC50 (second compound 10 µM): 37.3 nM
Compound: CC1COCCN1c1cc(-c2ccnn2C)c2ccnc(-c3ccn[nH]3)c2n1 (stereo unspecified) + Cc1cnc(CNC(=O)c2c(=O)c3ccc(N4CCCN(C)CC4)nc3n3c2sc2ccccc23)cn1
viability, T/C [1]: 85.7%
viability, T/C [2]: 62.4%
viability, T/C [3]: 37.3%
viability, T/C [4]: 31.8%
viability, T/C [5]: 33.6%
viability, T/C [6]: 30%
viability, T/C [7]: 91.6%
viability, T/C [8]: 53%
viability, T/C [9]: 36.4%
viability, T/C [10]: 27.6%
viability, T/C [11]: 40%
viability, T/C [12]: 28.1%
viability, T/C [13]: 74.4%
viability, T/C [14]: 43.8%
viability, T/C [15]: 33.9%
viability, T/C [16]: 34.1%
viability, T/C [17]: 32.9%
viability, T/C [18]: 24.4%
viability, T/C [19]: 66.3%
viability, T/C [20]: 43.4%
viability, T/C [21]: 33.2%
viability, T/C [22]: 30%
viability, T/C [23]: 32%
viability, T/C [24]: 26.1%
viability, T/C [25]: 57.6%
viability, T/C [26]: 33.4%
viability, T/C [27]: 31.4%
viability, T/C [28]: 31.6%
viability, T/C [29]: 27.4%
viability, T/C [30]: 19.9%
viability, T/C [31]: 52.9%
viability, T/C [32]: 35%
viability, T/C [33]: 32.5%
viability, T/C [34]: 25.9%
viability, T/C [35]: 27.3%
viability, T/C [36]: 20.3%
